Measurements reported in ChEMBL document CHEMBL1201862, “PubChem BioAssay data set” (2004).
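Where inhibition never reached the appropriate level, the endpoint shown equals the highest concentration tested. Otherwise, values were interpolated linearly from a five-concentration, 48-hour dose response in 96-well plates. GI50 marks 50% less growth.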 Calls of active or inactive are those of the source. Rule as the data show it: active = GI50 up to about 1.1 µM and inactive = higher.

Key:
Test in all cases: growth of human tumour cells (NCI), 48 h
NCI-H522 = system: NCI-H522
RPMI-8226 = system: RPMI-8226
MDA-N = system: MDA-N
HCT-15 = system: HCT-15
KM12 = system: KM12
SNB-19 = system: SNB-19
NCI-H23 = system: NCI-H23
BT-549 = system: BT-549
K562 = system: K562
SNB-75 = system: SNB-75
HT-29 = system: HT-29
RXF 393 = system: RXF 393
CCRF-CEM = system: CCRF-CEM
UACC-257 = system: UACC-257
OVCAR-3 = system: OVCAR-3
MCF7 = system: MCF7
NCI-H460 = system: NCI-H460
SF-268 = system: SF-268
SK-MEL-28 = system: SK-MEL-28
SK-OV-3 = system: SK-OV-3

Row | SMILES | GI50 (NCI-H522) | GI50 (RPMI-8226) | GI50 (MDA-N) | GI50 (HCT-15) | GI50 (KM12) | GI50 (SNB-19) | GI50 (NCI-H23) | GI50 (BT-549) | GI50 (K562) | GI50 (SNB-75) | GI50 (HT-29) | GI50 (RXF 393) | GI50 (CCRF-CEM) | GI50 (UACC-257) | GI50 (OVCAR-3) | GI50 (MCF7) | GI50 (NCI-H460) | GI50 (SF-268) | GI50 (SK-MEL-28) | GI50 (SK-OV-3)
1 | Cc1nc2c(sc(=S)n2-c2ccccc2)c2nc3ncccc3n12 | > 100 µM (inactive) | > 100 µM (inactive) | > 100 µM (inactive) | > 100 µM | > 100 µM (inactive) | 54.5 µM (inactive) | > 100 µM (inactive) | > 100 µM (inactive) | > 100 µM (inactive) | 23.6 µM (inactive) | > 100 µM (inactive) | 34.8 µM (inactive) | > 100 µM (inactive) | > 100 µM (inactive) | > 100 µM (inactive) | > 100 µM (inactive) | > 100 µM (inactive) | 66.7 µM (inactive) | > 100 µM (inactive) | 33 µM (inactive)
2 | CCn1c2ccccc2c2nnc(NCCCO)nc21 | > 100 µM (inactive) | > 100 µM (inactive) | > 100 µM (inactive) | > 100 µM | > 100 µM (inactive) | > 100 µM (inactive) | > 100 µM (inactive) | > 100 µM (inactive) | > 100 µM (inactive) | 44.1 µM (inactive) | > 100 µM (inactive) | 57.9 µM (inactive) | > 100 µM (inactive) | > 100 µM (inactive) | > 100 µM (inactive) | > 100 µM (inactive) | > 100 µM (inactive) | > 100 µM (inactive) | > 100 µM (inactive) | > 100 µM (inactive)
3 | Cn1c(=O)c2c(nc(N)n2C2OC(CO)C(O)C2O)n(C)c1=O (stereo not drawn) | > 100 µM (inactive) | > 100 µM (inactive) | > 100 µM (inactive) | > 100 µM | > 100 µM (inactive) | > 100 µM (inactive) | > 100 µM (inactive) | > 100 µM (inactive) | > 100 µM (inactive) | > 100 µM (inactive) | > 100 µM (inactive) | > 100 µM (inactive) | > 100 µM (inactive) | > 100 µM (inactive) | > 100 µM (inactive) | > 100 µM (inactive) | > 100 µM (inactive) | > 100 µM (inactive) | > 100 µM (inactive) | > 100 µM (inactive)
4 | Nc1c2ccccc2nc2ccc3c(=O)cc(-c4ccccc4)oc3c12 | 1.25 µM (inactive) | 0.473 µM (active) | 0.815 µM (active) | 1.02 µM | 0.596 µM (active) | 1.26 µM (inactive) | 1.53 µM (inactive) | 2.8 µM (inactive) | 0.272 µM (active) | 1.76 µM (inactive) | 0.465 µM (active) | 1.32 µM (inactive) | 0.445 µM (active) | 1.75 µM (inactive) | 1.42 µM (inactive) | 0.649 µM (active) | 0.646 µM (active) | 1.22 µM (inactive) | 1.55 µM (inactive) | 1.83 µM (inactive)
5 | COC(=O)CCC1(C)C2CCC1(C)/C(=N/O)C2 (stereo not drawn) | > 100 µM (inactive) | > 100 µM (inactive) | > 100 µM (inactive) | > 100 µM | > 100 µM (inactive) | > 100 µM (inactive) | > 100 µM (inactive) | > 100 µM (inactive) | > 100 µM (inactive) | > 100 µM (inactive) | > 100 µM (inactive) | > 100 µM (inactive) | > 100 µM (inactive) | > 100 µM (inactive) | > 100 µM (inactive) | > 100 µM (inactive) | – | > 100 µM (inactive) | > 100 µM (inactive) | > 100 µM (inactive)
6 | O=C(NNC(=S)Nc1ccccc1)c1ccccc1Nc1ccccc1C(=O)NNC(=S)Nc1ccccc1 | 16.5 µM (inactive) | 18.6 µM (inactive) | 29.1 µM (inactive) | 29.5 µM | 42 µM (inactive) | 17.7 µM (inactive) | 18.9 µM (inactive) | 17.4 µM (inactive) | 74 µM (inactive) | 22.4 µM (inactive) | 28.5 µM (inactive) | 19.2 µM (inactive) | 76.4 µM (inactive) | 19.1 µM (inactive) | 19.6 µM (inactive) | 23.8 µM (inactive) | 20 µM (inactive) | 17 µM (inactive) | 33 µM (inactive) | 30.1 µM (inactive)
7 | CC1Cc2cc(O)ccc2C2[C@@H]1C1CC[C@H](O)[C@@]1(C)C[C@@H]2O[N+](=O)[O-] (stereo partly drawn) | 5.62 µM (inactive) | 5.64 µM (inactive) | 1.96 µM (inactive) | 5.18 µM | 19.7 µM (inactive) | 9.68 µM (inactive) | 12 µM (inactive) | 10.9 µM (inactive) | 3.79 µM (inactive) | 10.3 µM (inactive) | 16 µM (inactive) | 2.73 µM (inactive) | 5.83 µM (inactive) | 13 µM (inactive) | 9.12 µM (inactive) | 4.86 µM (inactive) | 9.35 µM (inactive) | 16.2 µM (inactive) | 17.5 µM (inactive) | 19.6 µM (inactive)
8 | COC(=O)CSSCc1ccc([N+](=O)[O-])cc1 | 13.4 µM (inactive) | 18 µM (inactive) | 14.7 µM (inactive) | 16.7 µM | 15.1 µM (inactive) | 26.8 µM (inactive) | 32 µM (inactive) | 19.1 µM (inactive) | 29.6 µM (inactive) | 20 µM (inactive) | 19.5 µM (inactive) | 18.4 µM (inactive) | 5.6 µM (inactive) | 26.5 µM (inactive) | 18.5 µM (inactive) | 7.33 µM (inactive) | 33.7 µM (inactive) | 21.8 µM (inactive) | 18 µM (inactive) | 20.8 µM (inactive)
9 | NC1CCC(N(CC(=O)O)CC(=O)O)C(N(CC(=O)O)CC(=O)O)C1 (stereo not drawn) | > 100 µM (inactive) | > 100 µM (inactive) | > 100 µM (inactive) | > 100 µM | > 100 µM (inactive) | > 100 µM (inactive) | > 100 µM (inactive) | > 100 µM (inactive) | > 100 µM (inactive) | > 100 µM (inactive) | > 100 µM (inactive) | > 100 µM (inactive) | > 100 µM (inactive) | > 10 µM (inactive) | > 100 µM (inactive) | > 100 µM (inactive) | > 100 µM (inactive) | > 100 µM (inactive) | > 100 µM (inactive) | > 100 µM (inactive)
10 | COc1ccc(C(=O)/C=C/c2cc(O)c(O)c(F)c2F)c(OC)c1 | 11.2 µM (inactive) | 8.83 µM (inactive) | 12.7 µM (inactive) | 4.99 µM | 11.4 µM (inactive) | 27.2 µM (inactive) | 13.8 µM (inactive) | 19.2 µM (inactive) | 17.9 µM (inactive) | 22.4 µM (inactive) | 4.67 µM (inactive) | 18.2 µM (inactive) | 3.92 µM (inactive) | 15.9 µM (inactive) | 5.48 µM (inactive) | 3.22 µM (inactive) | 4.45 µM (inactive) | 18.6 µM (inactive) | 30 µM (inactive) | 21.5 µM (inactive)
11 | N#CCCN(C(=O)Nc1ccc(NC(=O)N(CCC#N)c2ccccc2)cc1)c1ccccc1 | > 100 µM (inactive) | > 100 µM (inactive) | > 100 µM (inactive) | > 100 µM | > 100 µM (inactive) | > 100 µM (inactive) | > 100 µM (inactive) | > 100 µM (inactive) | > 100 µM (inactive) | > 100 µM (inactive) | > 100 µM (inactive) | 92.7 µM (inactive) | – | – | > 100 µM (inactive) | > 100 µM (inactive) | > 100 µM (inactive) | > 100 µM (inactive) | > 100 µM (inactive) | > 100 µM (inactive)
12 | O=S1(=O)OCCOS(=O)(=O)C1F | > 100 µM (inactive) | > 100 µM (inactive) | > 100 µM (inactive) | > 100 µM | > 100 µM (inactive) | > 100 µM (inactive) | > 100 µM (inactive) | 0.0293 µM (active) | > 100 µM (inactive) | > 100 µM (inactive) | > 100 µM (inactive) | > 100 µM (inactive) | > 100 µM (inactive) | > 100 µM (inactive) | > 100 µM (inactive) | > 100 µM (inactive) | – | > 100 µM (inactive) | > 100 µM (inactive) | > 100 µM (inactive)
13 | COc1ccc(C(=O)O[C@H]2CC[C@@]3(C)[C@@H]4CC[C@H]5[C@]6(O)C[C@H](O)[C@@]7(O)[C@@H](CN8C[C@@H](C)CC[C@H]8[C@@]7(C)O)[C@]6(O)C[C@@]53OC24O)cc1OC [VERATRIDINE] | > 100 µM (inactive) | 80.4 µM (inactive) | > 100 µM (inactive) | > 100 µM | > 100 µM (inactive) | > 100 µM (inactive) | > 100 µM (inactive) | > 100 µM (inactive) | > 100 µM (inactive) | 23.4 µM (inactive) | 60.1 µM (inactive) | 57.5 µM (inactive) | – | 71.3 µM (inactive) | > 100 µM (inactive) | > 100 µM (inactive) | 75.2 µM (inactive) | > 100 µM (inactive) | > 100 µM (inactive) | > 100 µM (inactive)
14 | Nc1nc(N)c2c3c(cnc2n1)CC(c1ccccc1)CC3 (stereo not drawn) | 14.4 µM (inactive) | > 100 µM (inactive) | 3.7 µM (inactive) | 4.04 µM | 23.9 µM (inactive) | 13.6 µM (inactive) | – | 17 µM (inactive) | 0.875 µM (active) | 16.4 µM (inactive) | 5.66 µM (inactive) | 17.7 µM (inactive) | – | 65.3 µM (inactive) | 31 µM (inactive) | 11.7 µM (inactive) | 3.66 µM (inactive) | 11.9 µM (inactive) | 35.6 µM (inactive) | 21.5 µM (inactive)
